Legend:
[1] = system: dopamine transporter protein over the norepinephrine transporter protein; conditions: selectivity for DAT over NET; cited from earlier work
[2] = cited from earlier work

COC(=O)C(c1ccccc1)C1CCCCN1 (stereo not drawn) [Methylphenidate]
DAT/NET Ki ratio [1]: 0.1

CN1Cc2cc(-c3ccoc3)ccc2C(c2ccccc2)C1 (stereo not drawn)
melting point: 188 to 189 °C (dec.)

CN1Cc2c(N)cccc2C(c2ccccc2)C1 (stereo not drawn) [Nomofensine®]
side effect of long term administration [2]: fatal immune hemolytic anemia
